# Source: patent publication US11260050B2, “Combination of cotinine plus antioxidant for treatment-resistant depression and correction of astrocytes functional deficit induced by depression and other neuropathological” (UNIVERSIDAD SAN SEBASTIAN, priority 2017, dated 2022)
# How the values were obtained:
# restrained mice [1] = assay: Forced swim test after chronic restraint stress (Example 2); assay type: in vivo, C57BL/6 male mice; settings: IN cotinine post-treatment, p<0.01
# Protocol: Mice between 2-3 months of age after one week of acclimatization were randomly divided into two groups. Stressed mice were subjected to restraint stress. Control (non-restrained) mice were allowed to move freely during this period. After the stress exposure period, mice were divided into three experimental groups: 1) Non-restrained mice treated with vehicle (PBS, pH 7.4) serving as unstressed controls (n=8); 2) Restrained mice (RS) treated with vehicle (n=8); 3), RS mice treated with 24 μl of a cotinine solution (10 mg/ml in PBS, pH 7.4) via intranasal route of administration (n=6). Treatments were administered daily until euthanasia. After two weeks of treatments mice were behaviorally tested and euthanized (FIG. 10) Intranasal delivery was performed as previously described (Hanson and Frey, 2007). Mice at 2-3 months of age were hand-restrained, positioned in a supine position, and administered two 12 μl drops of cotinine solution (10 mg/ml in PBS), or PBS alone, into both nares. Mice were given an extra 12 μl treatment drop if the mouse expelled out the solution. Mice were kept in the supine posture for 5 seconds after delivery to facilitate the delivery. The administration was performed daily until euthanasia. […] Mice were placed in a transparent cylinder filled with water at 25° C. for 5 min and behavior was recorded. […]
# restrained mice [2] = assay: Open field test, oral co-treatment during restraint stress (Example 3); assay type: in vivo, C57BL/6J mice; settings: oral cotinine 5 mg/kg, KO 143 mg/kg or both, 25 min
# Protocol: Mice after acclimatization and one week of handling were randomly divided into five groups (n=8/condition) and orally treated as follow: 1) control non-restrained mice treated with vehicle (PBS, pH 7.4); 2) restrained mice treated with vehicle; 3), restrained mice treated with a cotinine solution (5 mg/kg in PBS, pH 7.4) via gavage; 4) restrained mice treated with KO (143 mg/kg); 5) restrained mice treated with cotinine plus KO solution. Mice were started with treatments, the first day of restraint and continuously until euthanasia. Treatments were administered at the same time of the day, 30 min before restraint. After 21 days into treatments, mice were behaviorally tested (FIG. 17).
# Restraint stress (RS) was used as a model of chronic stress-induced depressive-like behavior and cognitive impairment. We used this task because is a reliable method that mimics the effects of chronic stress without causing physical pain or unnecessary discomfort to the mice. Mice were gently introduced into a 50-ml conical transparent plastic tubes (Corning Inc.). […]
# The open field (OF) test was conducted as previously described with minor modifications to identify changes in locomotor activity in response to stress and/or drug treatments. […] Total distance traveled, and time spent in the center zone were measured under moderate lighting using the video tracking software (ANY-Maze, Stoelting Co.).
# calcineurin A = assay: Western blot of calcineurin A in the hippocampus (Example 4); assay type: in vivo, Mice C57BL/6; settings: conditioned mice after extinction; vs PBS-treated conditioned mice
# Protocol: Three-month-old mice (n=5-6/condition) were weighed and assigned to treatment groups. Mice were treated with vehicle or drugs, starting two h after fear conditioning and daily after behavioral testing until euthanasia. Mice received daily treatments with 1. PBS (phosphate buffer saline, pH 7.4) via intranasal; 2. Cotinine (10 mg/ml) dissolved in PBS via intranasal (IN Cot, 24 μl); 3. Krill oil dissolved in PBS, via intranasal (48 mg/ml, 24 μl); 4. Cotinine (10 mg/ml) plus krill oil dissolved in PBS, via intranasal (48 mg/ml, 24 μl); 5. […] The dose of cotinine was ten times lower than the dose of oral cotinine promoting fear extinction in C57BL/6 mice.
# After the behavioral testing, mice from all treatment groups were euthanized via cervical dislocation by a well-trained investigator. Brain regions of interest were dissected and stored at −20° C. for protein analyses. Each brain was divided into two parts, left and right hemispheres. […] The protein concentration of the supernatants was measured using the Bio-Rad protein assay (Bio-Rad, Hercules, Calif., USA). […] Membranes were washed with TBST and incubated with HRP-conjugated secondary antibodies (Bio-Rad) for 1 h at RT, washed with TBST and TBS, and images were acquired using My ECL imaging system and analyzed using the NIH Image J software.
# restrained C57BL/6 mice = settings: oral cotinine administered before and continuously to restrained C57BL/6 mice; cited from earlier work
structure (smiles),measurement,setting,value
"CN1C(=O)CC[C@H]1c1cccnc1 [Cotinine, (5S)-1-methyl-5-(3-pyridyl) pyrrolidin-2-one]",immobility in the forced swim test,restrained mice [1],significantly lower than PBS-treated restrained mice
same,"locomotor activity in the open field (distance traveled, speed)",restrained mice [2],no significant changes in locomotor activity
same,calcineurin A levels in the hippocampus,calcineurin A,significantly different from PBS-treated conditioned mice
same,depressive-like behavior induced by stress,restrained C57BL/6 mice,substantively decreased depressive-like behavior induced by stress
